The experiment concerns the target T1, Ikkb (Homo sapiens, UniProt O14920).
T1 sequence (O14920 1-756): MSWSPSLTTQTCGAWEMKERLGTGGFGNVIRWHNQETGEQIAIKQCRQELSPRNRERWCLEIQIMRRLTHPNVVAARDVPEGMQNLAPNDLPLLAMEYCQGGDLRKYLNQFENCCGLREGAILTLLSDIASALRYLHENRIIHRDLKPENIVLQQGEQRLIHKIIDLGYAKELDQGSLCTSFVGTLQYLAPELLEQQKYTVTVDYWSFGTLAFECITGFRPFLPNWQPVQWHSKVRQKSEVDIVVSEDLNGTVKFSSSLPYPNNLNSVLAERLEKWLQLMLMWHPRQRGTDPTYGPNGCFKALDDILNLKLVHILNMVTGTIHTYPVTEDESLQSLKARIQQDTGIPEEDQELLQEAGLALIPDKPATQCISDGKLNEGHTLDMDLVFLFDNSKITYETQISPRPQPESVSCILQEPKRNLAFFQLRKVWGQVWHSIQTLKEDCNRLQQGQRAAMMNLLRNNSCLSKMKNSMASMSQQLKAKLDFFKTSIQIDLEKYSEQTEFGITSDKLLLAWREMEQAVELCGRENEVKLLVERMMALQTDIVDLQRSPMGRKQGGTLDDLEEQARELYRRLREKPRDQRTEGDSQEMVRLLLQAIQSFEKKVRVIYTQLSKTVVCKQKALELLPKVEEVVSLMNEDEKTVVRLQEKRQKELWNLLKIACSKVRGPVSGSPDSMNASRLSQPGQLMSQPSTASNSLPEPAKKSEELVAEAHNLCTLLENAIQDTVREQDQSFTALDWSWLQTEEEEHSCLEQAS
In words: LabChip (Caliper) kinase assay, Ikkb. Type of experiment: biochemical. The following applies: for inhibition at 0.01 µM: compound at 10 nM; for inhibition at 0.01 µM / inhibition at 0.1 µM: read-out: remaining kinase activity (in %) / percentage of inhibition; for inhibition at 0.1 µM: compound at 100 nM; for IC50: ATP at Km, read-out: CI50 (the source's name). On the procedure:
The analysis of kinase activity described here was performed using LabChip (Caliper Life Sciences), specifically the Caliper LC3000 and the EZ Reader II instruments.
The kinase assay used measures the conversion of a fluorescent peptide (substrate) to a phosphorylated product. The reaction mixture, in a microplate well, is introduced by a capillary in a chip where the non-phosphorylated substrate and the phosphorylated product are separated by […]. The intensity of the fluorescent signal over time is related to the reaction progress. The phosphorylated product migrates quicker than the non-phosphorylated substrate and the signals of the two forms of the peptide appear as differentiated peaks. The Caliper determines the peak height and calculates the ratio of product to the peak sum (P/(P+S)). This value is used to compare wells with compounds and wells with controls and thus determine the % of inhibition for the given product.
The followings kinases were used for the enzymatic inhibition studies, between brackets the value of the Michaelis-Menten constant, Km, of the ATP (Adenosine triphosphate) for each kinase, in μM: obtained from Carna Biosciences: MAPKAPK2 (4.6), AurA (3.6), AurB (5), PKCζ (3.8), RSK1 (23.3), PRAK (5), Erk1 (33.4), PKD2 (32.1), CK1d (16.3), CHK1 (33), ABL (61.7), FYN (36), LYNa (17), CHK2 (57.8), MET (79.5), LCK (28.5), SRC (38), GSK3β (7.3), Erk2 (62.1), PKACα (1.7), AKT2 (186.1), INSR (871.8), p38a (396.5), AKT1(48), MSK1 (21.2), PKCβ2 (84.8), ROCK2 (3.3), PIM2 (4.9), AMPK (38.6), KDR (164.8), IRAK4 (196.5), SGK1 (121.8), SYK (33.5); obtained from Invitrogen: CDK2 (57.6), BTK (123), HGK (80); obtained from Upstate: MST2 (36.6), PKGα (16), PAK2 (1.9), IGF1R (320), FGFR1 (171), MARK1 (33), CAMK2δ (22.4), c-TAK1 (66), DYRK1a (18.1), CaMK4 (3.9), FLT3 (350), c-Raf (6.2), P70S6K (95).
The compounds were dissolved in 100% DMSO and were diluted at 25 times the final concentration desired for the assay. In the case of the determination of Cl50, serial dilutions were made to reach eight concentrations and give rise to the inhibition curve. 1 μL of each concentration is transferred, in duplicate to a 384-well microplate. 12 μL of enzymatic buffer is added to each well containing purified kinase (several suppliers as indicated above), 100 mM HEPES, pH 7.5, 1 mM DTT (Calbiochem), 0.002% Brij-35 (Sigma) and also in presence of 10 mM MgCl2 as cofactor, except for INSR and IRAK4 wherein 10 mM MnCl2 is used instead of MgCl2. For the kinases CAMK26 and CAMK4, 1 mM CaCl2 and 6.7 μg/mL of calmodulin are also added. For KDR kinase, 0.05% of the CHAPSO detergent is added. For the c-Raf kinase, 10 mM MnCl2 is added. For PKCβ2 0.02 μg/mL of PS/PMA is added. For PKGα se 10 μM of cGMP (cyclic guanosine monophosphate) is added. The compound and the enzyme are left for 15 minutes preincubation and, then, the following are added to each well: 12 μL of peptide buffer/ATP containing 100 mM HEPES, pH 7.5, 1.5 μM peptide marker with fluorescein (specific for the corresponding kinase), ATP (at concentration KM), and 0.002% Brij-35 to start the reaction. Generally, the reactions are incubated for 1-1.5 h at ambient temperature to obtain an adequate conversion (15-40%) of the peptide to the phosphorylated product. The reactions were ended by the addition of 45 μL of buffer containing 0 mM EDTA. The microplates were read by the LabChip 3000 using a 12-channel LabChip. The P/(P+S) values were obtained as described above and the CI50 curves were generated using XIfit.
Table 9a has the 0150 data obtained in pairs of compound-kinase selected from the compounds of formula (VII), (VIII), (IX), (XVI), (XVII) and (XVIII) after taking inhibition measurements at 100 nM and 10 nM. Those couples that provide >70% of inhibition at 10 nM were consider for measuring its IC50. […]

Each structure is given as a SMILES string.

As for `C[C@@H]1O[C@@H](n2c3ccccc3c3c4c(c5c6ccccc6[nH]c5c32)C(=O)NC4=O)[C@H](O)[C@H](O)[C@H]1O` [formula (III), N^13-1′-β-L-rhamnosylarcyriaflavin], the inhibition at 0.01 µM is -10% and the inhibition at 0.1 µM worked out at 32%.

For the compound `C[C@@H]1O[C@@H](n2c3ccccc3c3c4c(c5c6ccccc6[nH]c5c32)C(=O)NC4=O)C[C@H](O)[C@H]1O` [formula (IV), N^13-1′-β-L-olivosylarcyriaflavin], the inhibition at 0.01 µM worked out at 9% and the inhibition at 0.1 µM turned out to be 60%.

For `C[C@]12O[C@H](C[C@@H](O)[C@H]1O)n1c3ccccc3c3c4c(c5c6ccccc6n2c5c31)C(=O)NC4=O` [formula (IX), N^12-5′(S)-N^13-1′-(R)-L-digitoxosylarcyriaflavin], the IC50 is over 10 nM.

Regarding `C[C@@H]1O[C@@H](n2c3ccccc3c3c4c(c5c6ccccc6[nH]c5c32)C(=O)NC4=O)C[C@@H](O)[C@H]1O` [formula (V), N^13-1′-β-L-digitoxosylarcyriaflavin], the inhibition at 0.01 µM was found to be 37% and the inhibition at 0.1 µM came out at 76%.

As for `C[C@H]1O[C@@H](n2c3ccccc3c3c4c(c5c6ccccc6[nH]c5c32)C(=O)NC4=O)C[C@@H](O)[C@@H]1O` [formula (VI), N^13-1′-β-D-olivosylarcyriaflavin], the inhibition at 0.01 µM was determined as 7% and the inhibition at 0.1 µM is 50%.

Consider `C[C@]12O[C@H]([C@H](O)[C@H](O)[C@H]1O)n1c3ccccc3c3c4c(c5c6ccccc6n2c5c31)C(=O)NC4=O` [formula (VII), N^12-5′(S)-N^13-1′-(R)-L-rhamnosylarcyriaflavin], for which the IC50 stood at 0.17 nM.

With `C[C@]12O[C@H](C[C@H](O)[C@H]1O)n1c3ccccc3c3c4c(c5c6ccccc6n2c5c31)C(=O)NC4=O` [formula (VIII), N^12-5′(S)-N^13-1′-(R)-L-olivosylarcyriaflavin], the IC50 is under 0.03 nM.

For `C[C@@H]1O[C@@H](n2c3ccccc3c3c4c(c5c6ccccc6[nH]c5c32)CNC4=O)[C@H](O)[C@H](O)[C@H]1O` [formula (XII), N^13-1′-β-L-rhamnosyl-k252c], the inhibition at 0.01 µM was -5% and the inhibition at 0.1 µM amounted to 12%.

With `C[C@@H]1O[C@@H](n2c3ccccc3c3c4c(c5c6ccccc6[nH]c5c32)CNC4=O)C[C@H](O)[C@H]1O` [formula (XIII), N^13-1′-β-L-olivosyl-k252c], the inhibition at 0.01 µM is -5% and the inhibition at 0.1 µM is 33%.

Regarding `C[C@@H]1O[C@@H](n2c3ccccc3c3c4c(c5c6ccccc6[nH]c5c32)CNC4=O)C[C@@H](O)[C@H]1O` [formula (XIV), N^13-1′-β-L-digitoxosyl-k252c], the inhibition at 0.01 µM is 27% and the inhibition at 0.1 µM is 24%.

With `C[C@H]1O[C@@H](n2c3ccccc3c3c4c(c5c6ccccc6[nH]c5c32)CNC4=O)C[C@@H](O)[C@@H]1O` [formula (XV), N^13-1′-β-D-olivosyl-k252c], the inhibition at 0.01 µM is -5% and the inhibition at 0.1 µM turned out to be 16%.

As to `C[C@]12O[C@H](C[C@@H](O)[C@H]1O)n1c3ccccc3c3c4c(c5c6ccccc6n2c5c31)CNC4=O` [formula (XVIII), N^12-5′(S)-N^13-1′-(R)-L-digitoxosyl-k252c], the IC50 was over 100 nM.

The record behind these values is patent US8598132B2, “Glycosylated indolocarbazoles, method for obtaining same and uses thereof” (Universidad de Oviedo, priority 2008, dated 2013).
